#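 96-well plates; 48 h exposure; 5 concentrations. Endpoints by linear interpolation between flanking doses. Not reached: highest tested concentration assigned. GI50 = concentration required for 50% inhibition of growth. TGI is the concentration that stops growth completely.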
# Key:
# Test in all cases: NCI anticancer screen, dose series, 48 h
# [1] = test system: A549 NSCLC
# [2] = test system: OVCAR-3 ovarian
# [3] = test system: UACC-257 melanoma
# [4] = test system: A498 renal
# [5] = test system: SK-MEL-5 melanoma
# [6] = test system: RPMI-8226 leukemia
# [7] = test system: SW-620 colon
# [8] = test system: KM12 colon
# [9] = test system: COLO 205 colon
# [10] = test system: MALME-3M melanoma
Compound,GI50 [1] [µM],TGI [1] [µM],GI50 [2] [µM],TGI [2] [µM],GI50 [3] [µM],TGI [3] [µM],GI50 [4] [µM],TGI [4] [µM],GI50 [5] [µM],TGI [5] [µM],GI50 [6] [µM],TGI [6] [µM],GI50 [7] [µM],TGI [7] [µM],GI50 [8] [µM],TGI [8] [µM],GI50 [9] [µM],TGI [9] [µM],GI50 [10] [µM],TGI [10] [µM]
COc1cc(CNC(=O)CCSc2nc3ccccc3c(=O)n2Cc2cc(OC)c(OC)c(OC)c2)cc(OC)c1OC,6.33,> 100,4.23,18.2,16.3,> 100,4.05,21.1,2.85,13.7,4,67.2,4.31,> 100,3.98,> 100,5.32,23.2,,
Cc1ccc([N+](=O)[O-])cc1NC(=O)C(=O)C1CCC2=C(Sc3ccccc3N2)C1=O (stereo not given),,> 100,,90.8,,> 100,,,,> 100,,,,> 100,,> 100,,> 100,,
C=C(C)[C@@H]1CC[C@]2(C)[C@H](CC=C3[C@@H]4[C@H](C)[C@@H](C)CC[C@]4(CO)CC[C@]32C)[C@@]1(C)CCCN,1.59,5.11,0.934,1.79,1.04,2.21,3.83,11.2,0.91,1.65,,,1.01,2.11,0.908,1.65,0.899,1.94,0.734,1.42
O[C@H](CN1CC1)[C@@H](O)CN1CC1,7.28,> 100,13.3,35.2,11.6,89.9,5.24,21.7,13.1,29.2,6.74,> 100,4.61,> 100,11.7,28.1,12.4,25.5,,
CN(C)c1ccc(N=C(C#N)c2nc(N)nc(N3CCN(c4ccccc4)CC3)n2)cc1,15.3,> 34.2,27.5,> 50,28.1,> 44.2,,,24.5,> 47.5,> 26.8,> 50,22.1,> 50,49.6,> 50,> 42.4,> 50,0.0338,1.16
COC(=O)C12C3C4C1C1C2C3C41C(=O)N(C(C)C)C(C)C (stereo not given),,> 100,,> 100,,> 100,,> 100,,> 100,,,,> 100,,> 100,,> 100,,> 100
C[C@]12CC[C@H]3[C@@H](CCC4=C[C@@H](OC5OCC(OC6OC(CO)C(O)C(O)C6O)C(O)C5O)CC[C@@]43C=O)[C@@]1(O)CCC2C1=CC(=O)OC1 (stereo not given in full),,0.484,,1.43,,,,2.99,,,,2.75,,9.23,,13.9,,3.25,,2.19
O=C(O)Cc1cc(=O)[nH]c2c1C(=O)CCC2,,,,> 100,,> 100,,,,> 100,,> 100,,> 100,,> 100,,> 100,,> 100
O=c1oc2cc(OS(=O)(=O)c3ccccc3)ccc2c2c1CCCCC2,4.78,> 100,,,7.31,> 100,> 100,> 100,2.88,> 100,3.58,> 100,4.89,> 100,,,3.51,> 100,29.4,> 100
O=S1(=O)CC(Br)C(Br)C1 (stereo not given),13.5,28.9,2.77,7.82,4.94,51.2,25.1,55.1,2.3,10.3,12.3,41.2,,,13.4,32.4,1.61,3.17,3.91,13.1
S=C(Nc1ccccc1)N1CCn2c1nsc2=Nc1ccccc1,> 100,> 100,90,> 100,> 100,> 100,77.9,> 100,37.8,> 100,40.9,> 100,48.4,> 100,> 100,> 100,> 100,> 100,,
Cc1ccc(SCC(O)=C2C(=O)CCCC2=O)cc1,,> 100,,> 100,,> 100,,,,> 100,,> 100,,> 100,,> 100,,> 100,,> 100
C(#Cc1ccccc1C#Cc1ccccn1)c1ccccn1,20.5,44.3,,,19.3,39.8,18,34.6,15.5,30.9,,,21.2,56.7,11,22.9,16.9,46.4,7.74,21
CCC1OC(/C(C)=C/C(C)/C=C/C2C(C)C2/C=C/C2OC(CC(=O)O)CC(O)C2O)CC=C1C (stereo not given),> 50,> 50,,,> 50,> 50,> 50,> 50,> 50,> 50,> 50,> 50,> 50,> 50,> 50,> 50,> 50,> 50,1.99,> 50
CC(C)(O)CCC(O)C(C)(O)C1CCC2(O)C3=CC(=O)C4(O)CC(O)C(O)CC4(C)C3CCC12C (stereo not given) (tested in a mixture with another compound),,> 100,,> 100,,> 100,,> 100,,> 100,,,,> 100,,> 100,,> 100,,> 100
N=C1C(c2nc(-c3ccc(Br)cc3)cs2)=C(O)CN1CC1CCCO1 (stereo not given),> 100,> 100,,,> 100,> 100,> 100,> 100,> 100,> 100,> 100,> 100,,,> 100,> 100,> 100,> 100,> 100,> 100

Compound,GI50 [1] [µM],TGI [1] [µM],GI50 [2] [µM],TGI [2] [µM],GI50 [3] [µM],TGI [3] [µM],GI50 [4] [µM],TGI [4] [µM],GI50 [5] [µM],TGI [5] [µM],GI50 [6] [µM],TGI [6] [µM],GI50 [7] [µM],TGI [7] [µM],GI50 [8] [µM],TGI [8] [µM],GI50 [9] [µM],TGI [9] [µM],GI50 [10] [µM],TGI [10] [µM]
O=C(O)c1ccc2cccnc2c1O,0.747,25.8,1.68,5.22,2.02,5.29,,> 92.4,,,0.93,> 21.1,2,> 100,2.02,25,4.23,10.1,1.84,4.41
c1ccc(COc2cccc3cccnc23)cc1,,> 100,,> 100,,> 100,,,,> 100,,> 100,,> 100,,> 100,,> 100,,> 100
COC(=O)/C(=N/O)C(C(=O)OC)C(=O)C(=O)Nc1c(Cl)cc(C)cc1S(=O)(=O)O (stereo not given),,> 100,,> 100,,> 100,,> 100,,> 100,,53.3,,,,> 100,,> 100,,> 100
Cn1c(O)c(N=NC(N)=S)c2ccccc21,62.6,> 100,33.4,> 100,71.6,> 100,97.7,> 100,38.1,> 100,> 100,> 100,54.6,> 100,88.3,> 100,94.9,> 100,,
O=c1[nH]cnc2nc(-c3ccc(N(CCCl)CCCl)cc3)[nH]c12,6.19,> 100,22.8,79.6,,,22.2,70.3,3.47,> 100,> 100,> 100,6.46,> 100,70.3,> 100,> 100,> 100,33,> 100
CC(C)=CCC/C(C)=C/[C@H]1OC(=O)CC12C[C@H](O)C=CC2=O (stereo not given in full),2.08,15.8,0.455,0.848,1.2,2.82,1.47,3.09,1.35,3.17,0.235,0.594,0.446,> 100,0.777,2.67,1.1,3.72,,
O=c1cccccc1NCCNc1cccccc1=O,,> 100,,> 100,,> 100,,,,,,> 100,,> 100,,> 100,,> 100,,47.9
[N-]=[N+]=Nc1c(Br)c(=O)[nH]c(=O)n1COCCO,,> 100,,> 100,,> 100,,,,> 100,,,,> 100,,> 100,,> 100,,> 100
N#Cc1ncc(N2C(=O)C3(CCC3)N(c3ccc(OC4CCNCC4)nc3)C2=S)cc1C(F)(F)F,27.7,> 100,,,12.1,25.8,12.2,32.7,17.2,32,11.5,32,14.7,29.5,18.5,37,14.2,28.3,13.2,27.6
COc1ccc(S(=O)(=O)n2c3ccccc3n3ncc(-c4nnc(C)o4)c23)cc1,0.768,> 100,0.342,2.45,22.4,> 87,0.298,1.9,0.401,15,0.527,24.7,0.394,> 100,0.465,19.9,0.376,17.1,,
CC(=O)NS(=O)(=O)c1ccc(-n2nc(-c3ccccc3)cc2C2=CC(=O)C=CC2=O)cc1,> 100,> 100,> 100,> 100,> 100,> 100,,,44.2,> 100,,,36.6,> 100,> 100,> 100,> 100,> 100,,
Cc1cc(Cl)ccc1NC(=O)CCCC(=O)C(C(=O)c1ccccc1)c1ccccc1 (stereo not given),,,,> 100,,> 100,,> 100,,,,> 100,,,,> 100,,> 100,,> 100
CCN(CC)CCOc1nc2cc(OC)c(OC)cc2c2c1-c1ccc(OC)cc1C2=O,1.48,2.87,11.7,24,19.8,34.3,,,16.1,30.2,3.26,19.6,1.21,2.68,1.51,2.87,11.5,24.6,21.1,36.9
N#Cc1ccc2c(c1)C(=O)c1c-2n(CCCN=[N+]=[N-])c(=O)c2cc([N+](=O)[O-])ccc12,,,> 50,> 50,> 50,> 50,> 50,> 50,> 50,> 50,21.3,> 50,3.5,> 50,> 50,> 50,> 50,> 50,> 50,> 50
CCC1(CC)C(=O)[N-]C(=O)[N-]C1=O.[Au+].[Au+].c1ccc([PH+](c2ccccc2)c2ccccc2)cc1.c1ccc([PH+](c2ccccc2)c2ccccc2)cc1,,,1.31,2.59,1.26,2.53,,,1.05,2.26,,,,,,,1.74,3.36,0.626,1.94
Cc1cc(S(=O)(=O)Nc2nc3cc(-c4ccsc4)sc3c(=O)n2N)c(S)cc1Cl,47.4,> 100,> 100,> 100,> 100,> 100,,,38.4,> 100,> 100,> 100,> 100,> 100,68.6,> 100,> 100,> 100,> 100,> 100

# Reference: PubChem BioAssay (NCI)
